Experimental data from patent US10150982B2, “Microbial ecology shift assay” (Second Genome, Inc., priority 2013, dated 2018).

Experiments:
[1] = tested on: microbiota of human donor fecal samples; assay: MESA microplate experiments (16S rRNA V4 sequencing, PCoA/Unifrac); format: cell-based; details: 24 hours anaerobic
Procedure: A fecal sample was obtained from each of three human donors, Donor 1, Donor 2, and Donor 3. 1 gram of each fecal sample was added to 10 mL phosphate buffered saline (PBS) to form three separate slurries of 10% (w/v) fecal sample. A total of 36 experiments was setup on a 48-well plate (referred to herein as “microplate experiments”). For each slurry obtained from Donor 1 Donor 2, or Donor 3, 40 μL of the respective slurry was added to each of twelve wells of the plate. For each of these 12 wells, 360 μL of water (control), water comprising fructose, or water comprising fructose oligosaccharide (FOS) were added. After addition of water, three of the twelve wells comprised slurry+water; three of the twelve wells comprised slurry+2% w/v fructose+water; three of the twelve wells comprised slurry+0.5% w/v FOS+water; and three of the twelve wells comprised slurry+2% w/v FOS+water. In Table 1, “Donor 1” represents slurry from Donor 1, “Donor 2” represents slurry from Donor 2, and “Donor 3” represents slurry from Donor 3. The microplate was then incubated for 24 hours in an anaerobic chamber under 80% nitrogen, 10% carbon dioxide, and 10% hydrogen (H2). A total of 8 experiments were prepared each in a vial (referred to herein as “tube experiments”). 200 μL of slurry from Donor 1 was added to each of the 8 vials. In 4 of the vials, 1.8 mL of water comprising FOS was added for a final concentration of 2% w/v FOS. For the other four vials, 1.8 mL of water (control) was added. Two of the vials comprising FOS and the two vials comprising water are incubated for 24 hours in an anaerobic chamber (comprising 80% nitrogen, 10% carbon dioxide, and 10% hydrogen (H2)) at 37° C. The other four vials are incubated for 16 hours. DNA was extracted from each sample (well or tube) and quantified using a PicoGreen method. DNA is also extracted from an aliquot of each slurry obtained from Donor 1, Donor 2, and Donor 3. DNA comprising the variable region (V4) region of the 16S rRNA gene was amplified and sequenced using the MiSeq platform from Ilumina. Principle component analyses (PCoA) were performed to identify Unifrac distances (degree of similarity/dissimilarity) of the different treatment groups. Relative taxa representation for the various treatment groups was determined at the phylum, class, order, family, genus and species levels using operational taxonomic units (OTUs) by comparing results to the GreenGenes database.

[2] = tested on: microbiota of human donor fecal samples; assay: MESA tube experiments (16S rRNA V4 sequencing, PCoA/Unifrac); format: cell-based; details: 2% FOS
Procedure: A fecal sample was obtained from each of three human donors, Donor 1, Donor 2, and Donor 3. 1 gram of each fecal sample was added to 10 mL phosphate buffered saline (PBS) to form three separate slurries of 10% (w/v) fecal sample. A total of 36 experiments was setup on a 48-well plate (referred to herein as “microplate experiments”). For each slurry obtained from Donor 1 Donor 2, or Donor 3, 40 μL of the respective slurry was added to each of twelve wells of the plate. For each of these 12 wells, 360 μL of water (control), water comprising fructose, or water comprising fructose oligosaccharide (FOS) were added. After addition of water, three of the twelve wells comprised slurry+water; three of the twelve wells comprised slurry+2% w/v fructose+water; three of the twelve wells comprised slurry+0.5% w/v FOS+water; and three of the twelve wells comprised slurry+2% w/v FOS+water. In Table 1, “Donor 1” represents slurry from Donor 1, “Donor 2” represents slurry from Donor 2, and “Donor 3” represents slurry from Donor 3. […] DNA was extracted from each sample (well or tube) and quantified using a PicoGreen method. […] Relative taxa representation for the various treatment groups was determined at the phylum, class, order, family, genus and species levels using operational taxonomic units (OTUs) by comparing results to the GreenGenes database.

[3] = Donor 1, 2% w/v agent, n=3, FIG. 2
[4] = Donor 2, 2% w/v agent, n=3, FIG. 3
[5] = Donor 3, 2% w/v agent, n=3, FIG. 4

O=C(CO)[C@@H](O)[C@H](O)[C@H](O)CO [fructose]
shift in microbiota profile (PCoA, Unifrac distances) [1, 3]: shift microbiota differently from controls | shift in microbiota profile (PCoA, Unifrac distances) [1, 4]: shift microbiota differently from controls | shift in microbiota profile (PCoA, Unifrac distances) [1, 5]: shift microbiota differently from controls

fructose oligosaccharide [FOS]
shift in microbiota profile (PCoA, Unifrac distances) ([1]; Donor 1, 0.5% w/v agent, n=3, FIG. 2): shift microbiota differently from controls | shift in microbiota profile (PCoA, Unifrac distances) [1, 3]: shift microbiota differently from controls | shift in microbiota profile (PCoA, Unifrac distances) ([1]; Donor 2, 0.5% w/v agent, n=3, FIG. 3): shift microbiota differently from controls | shift in microbiota profile (PCoA, Unifrac distances) [1, 4]: shift microbiota differently from controls | shift in microbiota profile (PCoA, Unifrac distances) ([1]; Donor 3, 0.5% w/v agent, n=3, FIG. 4): shift microbiota differently from controls | shift in microbiota profile (PCoA, Unifrac distances) [1, 5]: shift microbiota differently from controls | shifts in microbial communities between the two assay formats ([2]; 24 hour incubation, tube (n=2) vs microplate (n=3), FIG. 6): similar | shifts in microbial communities between the two incubation times ([2]; Donor 1, 16 hour vs 24 hour incubation, tube, n=2, FIG. 5): similar
